Drawing on US20260226073A1 (AURIGENE ONCOLOGY LIMITED, priority 2023, published 2026), this text covers IC50 for 40 compounds.

This assay deals with T1, human recombinant CBL-b (human Biotin CBL-b recombinant protein a.a. 39-426) (Homo sapiens, UniProt Q13191).
T1 construct: human Biotin CBL-b recombinant protein a.a; 39-426; Biotin (biotinylated); made in house
T1 sequence (Q13191 39-426): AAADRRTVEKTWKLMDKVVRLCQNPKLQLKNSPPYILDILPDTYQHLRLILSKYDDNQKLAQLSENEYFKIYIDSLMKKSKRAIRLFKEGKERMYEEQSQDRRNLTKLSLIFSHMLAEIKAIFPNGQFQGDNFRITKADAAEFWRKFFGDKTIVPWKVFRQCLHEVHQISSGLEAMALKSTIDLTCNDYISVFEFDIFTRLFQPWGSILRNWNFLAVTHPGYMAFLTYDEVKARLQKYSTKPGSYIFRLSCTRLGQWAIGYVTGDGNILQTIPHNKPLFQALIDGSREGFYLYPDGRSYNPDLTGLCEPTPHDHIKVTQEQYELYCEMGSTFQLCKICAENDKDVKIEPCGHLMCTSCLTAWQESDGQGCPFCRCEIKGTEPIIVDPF
The assay can be described thus: Biochemical assay for CBL-b inhibition (ligand displacement TR-FRET). It is filed as binding. The conditions noted are these: 50 nM CBL-b, 0.3 μM Bodipy FL-Probe, read-out: IC50 (CBL-b inhibition, group). The protocol:
The inhibitory activity of the test compounds was assessed by Ligand displacement TR-FRET assay. The human recombinant CBL-b (human Biotin CBL-b recombinant protein a.a. 39-426; synthesised in-house) was diluted in enzyme assay buffer (20 mM HEPES, 150 mM NaCl, 0.01% Triton X, 0.01% BSA, 0.5 mM TCEP) in a 10 μl volume and plated in 384-well plates (Cat #781075, Greiner) to a final concentration of 50 nM. The enzyme/compound mixture was incubated at RT for 60 min. The Bodipy FL-Probe described in WO 2020/210508 (synthesized in-house) diluted in enzyme assay buffer was added to the plate and incubated for 60 min RT, the final probe concentration was 0.3 μM. After 60 min incubation, 10 μl of detection mix (Terbium Streptavidin, (Cat #PV3576, Invitrogen) diluted in 1× Lance buffer) was added and incubated for 60 min at room temperature. Time-resolved fluorescence (excitation, 320 nm; emission donor, 615 nm; emission acceptor, 665 nm) was monitored by using 2030 multilabel reader Victor5 (PerkinElmer). The IC50 (concentration for half maximal inhibition) and % maximum inhibition of the compounds were estimated by fitting the dose response data to a sigmoidal curve fitting equation using Graph pad Prism software V. 8.
(In TR-FRET formats the signal depends on donor and acceptor labels being close together.)
Broadly, the IC50 is the concentration at which inhibition is half-maximal. Regarding `Cn1cnnc1CC1(c2ccc3c(c2)C(=O)N(c2cc(CNCC4(C#N)CCC4)cc(Cl)n2)C3)COC1` [Compound 243], the IC50 was 80 to 300 nM.

On to `C[C@H]1CCCN(Cc2ccnc(N3Cc4ccc(C5(Cc6nncn6C)COC5)cc4C3=O)c2)C1` [Compound 149], for which the IC50 was 80 to 300 nM.

On to `CC1CCC(CNCc2cc(Cl)nc(N3Cc4ccc(C5(Cc6nncn6C)COC5)cc4C3=O)c2)O1` (stereo not shown) [Compound 250], for which the IC50 was in the range of 80 to 300 nM.

For `CC(Cc1nncn1C)c1cnc2c(c1)C(=O)N(c1cc(CN3CCC[C@H](C)C3)cc(Cl)n1)C2` (stereo partly shown) [Compound 150], the IC50 lay within 80 to 300 nM.

Take `Cn1cnnc1CC1(c2ccc3c(c2)C(=O)N(c2cc(CN4CCCC(O)CC4)cc(Cl)n2)C3)COC1` (stereo not shown) [Compound 174]: the IC50 lay in the range of 80 to 300 nM.

Take `C[C@@H](NCc1cscn1)c1cc(Cl)nc(N2Cc3ccc(C4(Cc5nncn5C)COC4)cc3C2=O)c1` (single isomer, unassigned) [Compound 217]: the IC50 is 80 to 300 nM.

`CCN(CC)Cc1cc(Cl)nc(N2Cc3ccc(C4(Cc5nncn5C)COC4)cc3C2=O)c1` [Compound 79, 2-(6-Chloro-4-((diethylamino)methyl)pyridin-2-yl)-6-(3-((4-methyl-4H-1,2,4-triazol-3-yl)methyl)oxetan-3-yl)isoindolin-1-one]: the IC50 was in the range of 300 to 5000 nM.

For the compound `Cc1cc(CN2CCC[C@H]2CO)cc(N2Cc3ccc(-c4ccc(F)cc4-c4nncn4C)cc3C2=O)n1` [Compound 288], the IC50 was 300 to 5000 nM.

For `Cn1cnnc1CC1(c2ccc3c(c2)C(=O)N(c2cc(CNCC4CCCCC4)cc(Cl)n2)C3)COC1` [Compound 153], the IC50 is 80 to 300 nM.

In the case of `Cn1cnnc1CC1(c2ccc3c(c2)C(=O)N(c2cc(CNCc4ncco4)cc(Cl)n2)C3)COC1` [Compound 208], the IC50 was 300 to 5000 nM.

Regarding `Cn1cnnc1CC1(c2ccc3c(c2)C(=O)N(c2cc(CNCc4nccs4)cc(Cl)n2)C3)COC1` [Compound 194], the IC50 was in the range of 80 to 300 nM.

`Cn1cnnc1CC1(c2ccc3c(c2)C(=O)N(c2cc(CN4CCC(C)(F)C4)cc(Cl)n2)C3)COC1` (stereo not shown) [Compound 184]: the IC50 was in the range of 80 to 300 nM.

For the compound `Cc1cc(C(C)c2nccn2C)cc(N2Cc3ccc(-c4ccc(F)cc4-c4nncn4C)cc3C2=O)n1` (stereo not shown) [Compound 334, 6-(4-Fluoro-2-(4-methyl-4H-1,2,4-triazol-3-yl)phenyl)-2-(6-methyl-4-(1-(1-methyl-1H-imidazol-2-yl)ethyl)pyridin-2-yl)isoindolin-1-one], the IC50 is 300 to 5000 nM.

Turning to `Cc1cc(CNCC2CC2)cc(N2Cc3ncc(-c4ccc(Cl)cc4-c4nncn4C)cc3C2=O)n1` [Compound 264], the IC50 lay in the range of 80 to 300 nM.

On to `CC(C)C(Cc1nncn1C)c1ccc2c(c1)C(=O)N(c1cc(CN3CCC[C@H](C)C3)cc(Cl)n1)C2` (stereo partly shown) [Compound 165], for which the IC50 lay within 300 to 5000 nM.

For `Cc1cc(NCC2CCCN2)cc(N2Cc3ccc(C4(Cc5nncn5C)COC4)cc3C2=O)n1` (stereo not shown) [Compound 336, 2-(6-Methyl-4-((pyrrolidin-2-ylmethyl)amino)pyridin-2-yl)-6-(3-((4-methyl-4H-1,2,4-triazol-3-yl)methyl)oxetan-3-yl)isoindolin-1-one], the IC50 fell in the range of 300 to 5000 nM.

As to `CN1CCN(Cc2cc(N3Cc4ccc(C5(Cc6nncn6C)COC5)cc4C3=O)nc(C(F)(F)F)c2)CC1=O` [Compound 63, 2-(4-((4-Methyl-3-oxopiperazin-1-yl)methyl)-6-(trifluoromethyl)pyridin-2-yl)-6-(3-((4-methyl-4H-1,2,4-triazol-3-yl)methyl)oxetan-3-yl)isoindolin-1-one], the IC50 lay in the range of 80 to 300 nM.

On to `Cn1cnnc1CC1(c2ccc3c(c2)C(=O)N(c2cc(CN4CCC5OCCC54)cc(Cl)n2)C3)COC1` (stereo not shown) [Compound 192], for which the IC50 is 300 to 5000 nM.

As to `Cc1cc(CNCC2CC2)cc(N2Cc3ccc(-c4cc(Cl)ccc4-c4nncn4C)cc3C2=O)n1` [Compound 270], the IC50 fell in the range of 300 to 5000 nM.

For the compound `Cc1cc(CNCC(O)CN)cc(N2Cc3ccc(-c4ccc(F)cc4-c4nncn4C)cc3C2=O)n1` (stereo not shown) [Compound 318], the IC50 is 300 to 5000 nM.

As to `Cc1cncn1Cc1cc(N2Cc3ccc(C4(Cc5nncn5C)COC4)cc3C2=O)nc(C(F)(F)F)c1` [Compound 69, 2-(4-((5-Methyl-1H-imidazol-1-yl)methyl)-6-(trifluoromethyl)pyridin-2-yl)-6-(3-((4-methyl-4H-1,2,4-triazol-3-yl)methyl)oxetan-3-yl)isoindolin-1-one], the IC50 is 300 to 5000 nM.

As to `Cc1cc(CN2CCC3(CCC3)C2)cc(N2Cc3ccc(-c4ccc(F)cc4-c4nncn4C)cc3C2=O)n1` [Compound 258], the IC50 is under 80 nM.

On to `Cn1cc2c(n1)CCCN2Cc1cc(N2Cc3ccc(C4(Cc5nncn5C)COC4)cc3C2=O)nc(C(F)(F)F)c1` [Compound 128, 2-(4-((2-Methyl-2,5,6,7-tetrahydro-4H-pyrazolo[4,3-b]pyridin-4-yl)methyl)-6-(trifluoromethyl)pyridin-2-yl)-6-(3-((4-methyl-4H-1,2,4-triazol-3-yl)methyl)oxetan-3-yl)isoindolin-1-one], for which the IC50 lay in the range of 300 to 5000 nM.

As for `Cn1cnnc1CC1(c2ccc3c(c2)C(=O)N(c2cc(CNC4CCCC4O)cc(Cl)n2)C3)COC1` (single isomer, unassigned) [Compound 209, 2-(6-Chloro-4-(((2-hydroxycyclopentyl)amino)methyl)pyridin-2-yl)-6-(3-((4-methyl-4H-1,2,4-triazol-3-yl)methyl)oxetan-3-yl)isoindolin-1-one], the IC50 was under 80 nM.

On to `CC1CCNC(c2cc(Cl)nc(N3Cc4ccc(C5(Cc6nncn6C)COC5)cc4C3=O)c2)C1` (stereo not shown) [Compound 249], for which the IC50 was in the range of 300 to 5000 nM.

On to `Cn1ccc(CNCc2cc(Cl)nc(N3Cc4ccc(C5(Cc6nncn6C)COC5)cc4C3=O)c2)n1` [Compound 212], for which the IC50 is 300 to 5000 nM.

With `Cc1nc(CNCC2CC2)cc(N2Cc3ccc(C4(Cc5nncn5C)COC4)cc3C2=O)n1` [Compound 186], the IC50 lay in the range of 80 to 300 nM.

Regarding `Cc1cc(CNCC2CC2)cc(N2Cc3ccc(-c4ccc(F)cc4-c4nocc4C)cc3C2=O)n1` [Compound 289, 2-(4-(((Cyclopropylmethyl)amino)methyl)-6-methylpyridin-2-yl)-6-(4-fluoro-2-(4-methylisoxazol-3-yl)phenyl)isoindolin-1-one], the IC50 was under 80 nM.

Regarding `Cc1cc(CNCC2CC2)cc(N2Cc3ccc(-c4ccc(C(F)(F)F)cc4-c4nncn4C)cc3C2=O)n1` [Compound 272], the IC50 lay in the range of 80 to 300 nM.

Turning to `Cc1cc(CNCC(F)(F)F)cc(N2Cc3ccc(C4(Cc5nncn5C)COC4)cc3C2=O)c1` [Compound 22, 6-(3-((4-Methyl-4H-1,2,4-triazol-3-yl)methyl)oxetan-3-yl)-2-(3-methyl-5-(((2,2,2-trifluoroethyl)amino)methyl)phenyl)isoindolin-1-one], the IC50 was 300 to 5000 nM.

Consider `Cc1cc(CNCCO)cc(N2Cc3ccc(-c4ccc(F)cc4-c4nncn4C)cc3C2=O)n1` [Compound 301], for which the IC50 lay within 80 to 300 nM.

As to `Cn1cnnc1CC1(c2ccc3c(c2)C(=O)N(c2cc(C(=O)N4CC[C@H](O)C4)cc(C(F)(F)F)n2)C3)COC1` [Compound 36, (S)-2-(4-(3-Hydroxypyrrolidine-1-carbonyl)-6-(trifluoromethyl)pyridin-2-yl)-6-(3-((4-methyl-4H-1,2,4-triazol-3-yl)methyl)oxetan-3-yl)isoindolin-1-one], the IC50 lay within 300 to 5000 nM.

For the compound `CC(C)NCC(O)c1cc(N2Cc3ccc(C4(Cc5nncn5C)COC4)cc3C2=O)cc(C(F)(F)F)c1` (stereo not shown) [Compound 100, 2-(3-(1-Hydroxy-2-(isopropylamino)ethyl)-5-(trifluoromethyl)-phenyl)-6-(3-((4-methyl-4H-1,2,4-triazol-3-yl)methyl)oxetan-3-yl)isoindolin-1-one], the IC50 is 300 to 5000 nM.

In the case of `C[C@H]1CCCN(Cc2cc(Cl)nc(N3Cc4ccc(-c5ccccc5-c5nncn5C)cc4C3=O)c2)C1` [Compound 118, (S)-2-(6-Chloro-4-((3-methylpiperidin-1-yl)methyl)pyridin-2-yl)-6-(2-(4-methyl-4H-1,2,4-triazol-3-yl)phenyl)isoindolin-1-one], the IC50 was under 80 nM.

In the case of `Cc1cc(CNCC2CC2)cc(N2Cc3ccc(-c4ccc(Cl)cc4-c4cc[nH]n4)cc3C2=O)n1` [Compound 271], the IC50 was 80 to 300 nM.

For `Cc1cc(CNCC2CC2)cc(N2Cc3ccc(-c4cccnc4-c4nncn4C)cc3C2=O)n1` [Compound 266], the IC50 was in the range of 300 to 5000 nM.

As to `CN1CC2CC1CN2Cc1cc(N2Cc3ccc(C4(Cc5nncn5C)COC4)cc3C2=O)nc(C(F)(F)F)c1` (stereo not shown) [Compound 81, 2-(4-((5-Methyl-2,5-diazabicyclo[2.2.1]heptan-2-yl)methyl)-6-(trifluoromethyl)-pyridin-2-yl)-6-(3-((4-methyl-4H-1,2,4-triazol-3-yl)methyl)oxetan-3-yl)isoindolin-1-one], the IC50 was 300 to 5000 nM.

With `Cc1cc(CN2CCC[C@@H]2CO)cc(N2Cc3ccc(-c4ccc(F)cc4-c4nncn4C)cc3C2=O)n1` [Compound 286], the IC50 lay within 80 to 300 nM.

As for `Cc1cc(CNCC2(CO)CC2)cc(N2Cc3ccc(-c4ccc(F)cc4-c4nncn4C)cc3C2=O)n1` [Compound 316], the IC50 lay in the range of 80 to 300 nM.

`Cc1cccc(CNCc2cc(Cl)nc(N3Cc4ccc(C5(Cc6nncn6C)COC5)cc4C3=O)c2)n1` [Compound 229]: the IC50 lay within 300 to 5000 nM.
